Reference: ChEMBL document CHEMBL1649172, “Novel imino sugar derivatives demonstrate potent antiviral activity against flaviviruses” (Antimicrob Agents Chemother, 2009)
Calls of active or inactive are those of the source. The calls are words filed in the database; no cut-off is given here.

Columns and labels:
[1] = Cytotoxicity against african green monkey Vero cells by MTT assay; type: cell-based; details: chlorocebus sabaeus
[2] = Cytotoxicity against MDBK cells by MTT assay; type: cell-based, Bos taurus; details: cattle
[3] = Cytotoxicity against BHK cells by MTT assay; type: cell-based, Mesocricetus auratus; details: hamster
[4] = Antiviral activity against 1 MOI Bovine viral diarrhea virus NADL infected in MDBK cells assessed as reduction in viral titer after 72 hrs by plaque forming assay; type: functional, cell-based, Bovine viral diarrhea virus 1-NADL; details: Bovine viral diarrhea virus isolates and strains
[5] = test system: Dengue virus; experiment: Antiviral activity against Dengue virus C infected in african green monkey Vero cells assessed as reduction in viral titer after 72 hrs by plaque reduction assay; type: functional, organism-based
[6] = test system: West Nile virus; experiment: Antiviral activity against West Nile virus infected in baby hamster kidney cells assessed as reduction in viral titer after 72 hrs by plaque reduction assay; type: functional, organism-based
[7] = Selectivity index, ratio of CC50 for bovine MDBK cells to EC50 for 1 MOI Bovine viral diarrhea virus infected in bovine MDBK cells; type: toxicity, cell-based; details: cattle; read-out: Ratio CC50/EC50
[8] = Antiviral activity against 1 MOI Bovine viral diarrhea virus NADL infected in bovine MDBK cells assessed as inhibition of intracellular viral RNA production at 100 uM after 24 hrs by RT-PCR; type: functional, Bovine viral diarrhea virus 1-NADL; details: Bovine viral diarrhea virus isolates and strains
[9] = Antiviral activity against 1 MOI Bovine viral diarrhea virus NADL infected in bovine MDBK cells assessed as inhibition of viral RNA replication at 100 uM after 24 hrs by RT-PCR; type: functional, Bovine viral diarrhea virus 1-NADL; details: Bovine viral diarrhea virus isolates and strains
[10] = Antiviral activity against 1 MOI Bovine viral diarrhea virus NADL infected in bovine MDBK cells assessed as reduction in viral titer at 100 uM after 24 hrs by RT-PCR; type: functional, Bovine viral diarrhea virus 1-NADL; details: Bovine viral diarrhea virus isolates and strains
[11] = Antiviral activity against 1 MOI Bovine viral diarrhea virus NADL infected in bovine MDBK cells assessed as reduction in viral titer at 80 uM after 24 hrs by RT-PCR; type: functional, Bovine viral diarrhea virus 1-NADL; details: Bovine viral diarrhea virus isolates and strains
[12] = test system: MDBK; experiment: Antiviral activity against 1 MOI Bovine viral diarrhea virus NADL infected in bovine MDBK cells assessed as inhibition of viral RNA replication at 100 uM after 12 hrs by RT-PCR; type: functional, cell-based; details: Bovine viral diarrhea virus 1-NADL
[13] = test system: MDBK; experiment: Antiviral activity against 1 MOI Bovine viral diarrhea virus NADL infected in bovine MDBK cells assessed as inhibition of viral RNA replication at 80 uM after 12 hrs by RT-PCR; type: functional, cell-based; details: Bovine viral diarrhea virus 1-NADL
[14] = Antiviral activity against 1 MOI Bovine viral diarrhea virus NADL infected in bovine MDBK cells assessed as inhibition of intracellular viral RNA production at 80 uM after 24 hrs by RT-PCR; type: functional, Bovine viral diarrhea virus 1-NADL; details: Bovine viral diarrhea virus isolates and strains
[15] = Antiviral activity against 1 MOI Bovine viral diarrhea virus NADL infected in bovine MDBK cells assessed as inhibition of extracellular viral RNA production at 80 uM after 24 hrs by RT-PCR; type: functional, Bovine viral diarrhea virus 1-NADL; details: Bovine viral diarrhea virus isolates and strains
[16] = Antiviral activity against 1 MOI Bovine viral diarrhea virus NADL infected in bovine MDBK cells assessed as inhibition of extracellular viral RNA production at 100 uM after 24 hrs by RT-PCR; type: functional, Bovine viral diarrhea virus 1-NADL; details: Bovine viral diarrhea virus isolates and strains
[17] = test system: MDBK; experiment: (§1) Antiviral activity against 1 MOI Bovine viral diarrhea virus NADL infected in bovine MDBK cells assessed as inhibition of viral RNA replication at 80 uM after 24 hrs by RT-PCR; type: functional; details: Bovine viral diarrhea virus 1-NADL
[18] = as §1; type: functional, Bovine viral diarrhea virus 1-NADL; details: Bovine viral diarrhea virus isolates and strains
[19] = test system: MDBK; experiment: Antiviral activity against 1 MOI Bovine viral diarrhea virus NADL infected in bovine MDBK cells assessed as inhibition of viral RNA replication at 100 uM after 6 hrs by RT-PCR; type: functional, cell-based; details: Bovine viral diarrhea virus 1-NADL
[20] = test system: Bovine viral diarrhea virus 1-NADL; experiment: Inhibition of […] assessed as reduced E2 protein mobility after 24 hrs by Western blotting
[21] = test system: MDBK; experiment: Antiviral activity against 1 MOI Bovine viral diarrhea virus NADL infected in bovine MDBK cells assessed as inhibition of viral RNA replication at 80 uM after 6 hrs by RT-PCR; type: functional, cell-based; details: Bovine viral diarrhea virus 1-NADL
[22] = test system: Dengue virus; experiment: Antiviral activity against Dengue virus; type: functional, organism-based
[23] = test system: Bovine viral diarrhea virus 1; experiment: Antiviral activity against Bovine viral diarrhea virus 1; type: functional, organism-based; details: Bovine viral diarrhea virus isolates and strains

SMILES | CC50 [1] [µM] | CC50 [2] [µM] | CC50 [3] [µM] | EC50 [4] [µM] | EC90 [4] [µM] | EC50 [5] [µM] | EC90 [5] [µM] | EC50 [6] [µM] | selectivity ratio [7] | also measured
CC(C)[C@@H]1CC[C@@H](C)CC1OCCCCCCN1C[C@H](O)[C@@H](O)[C@H](O)[C@H]1CO (stereo partly specified) | 80 | 235 | 70 | 1.6 | 14.8 | 0.1 | 0.2 | 4.75 | 146 | EC90 [6]: 19 µM
CC1CCC(OCCCCCCN2C[C@H](O)[C@@H](O)[C@H](O)[C@H]2CO)CC1 (stereo partly specified) | > 40 | > 500 |  | 7.1 | 53 | 6.75 | 13 |  | > 70 | inhibition at 100 µM [8]: 40%; inhibition at 100 µM [9]: 40%; inhibition at 100 µM [10]: 89%; inhibition at 80 µM [11]: 89%; inhibition [12]: inactive; inhibition [13]: inactive; inhibition at 80 µM [14]: 40%; inhibition at 80 µM [15]: 73%; inhibition at 100 µM [16]: 73%; inhibition [17]: Active; inhibition at 80 µM [18]: 40%
CCC(O)(CC)CCCCCN1C[C@H](O)[C@@H](O)[C@H](O)[C@H]1CO |  | > 500 |  | 22 | > 100 |  |  |  | > 23 | 
C[C@@H]1CCCCC1OCCCCCCN1C[C@H](O)[C@@H](O)[C@H](O)[C@H]1CO (stereo partly specified) | 65 | > 500 | 70 | 3.3 | 14.3 | 0.075 | 0.6 | 3.5 | > 151 | EC90 [6]: 33 µM
OC[C@@H]1[C@@H](O)[C@H](O)[C@@H](O)CN1CCCCCOCC1CC2CCC1C2 (stereo partly specified) |  | > 500 |  | 2.9 | 22 |  |  |  | > 172 | 
OC[C@@H]1[C@@H](O)[C@H](O)[C@@H](O)CN1CCCCCC1(O)CCCCC1 | > 40 | > 500 | > 100 | 10.5 | > 100 | 4 | 8.7 | 4.5 | > 48 | inhibition at 100 µM [8]: 40%; inhibition at 100 µM [9]: 40%; inhibition [19]: inactive; inhibition [20]: Dose-dependent effect; inhibition at 100 µM [10]: 89%; inhibition at 80 µM [11]: 89%; inhibition [12]: inactive; inhibition [13]: inactive; inhibition at 80 µM [14]: 40%; inhibition at 80 µM [15]: 73%; inhibition at 100 µM [16]: 73%; inhibition [21]: inactive; inhibition at 80 µM [18]: 40%
CCCCCCCCCN1C[C@H](O)[C@@H](O)[C@H](O)[C@H]1CO | > 40 | 245 | 20 | 7.3 | 71 | 1.1 | 3.3 | 4 | 33 | 
OC[C@@H]1[C@@H](O)[C@H](O)[C@@H](O)CN1CCCCCCOC1CC2CCC1C2 (stereo partly specified) |  | > 500 |  | 4.5 | 47 |  |  |  | > 111 | 
OC[C@@H]1[C@@H](O)[C@H](O)[C@@H](O)CN1CCCCCCC1(O)CCCCC1 |  | > 500 |  | 18 | 82.5 |  |  |  | > 28 | 
Cc1ccc(C)c(OCCCCCCN2C[C@H](O)[C@@H](O)[C@H](O)[C@H]2CO)c1 | 85 | 485 | 75 | 3 | 24.9 | 0.1 | 0.6 | 1.5 | 162 | EC90 [6]: 20 µM
CCCC(O)(CCC)CCCCCN1C[C@H](O)[C@@H](O)[C@H](O)[C@H]1CO |  | > 500 |  | 9.5 | > 100 |  |  |  | > 53 | 
CCCCN1C[C@H](O)[C@@H](O)[C@H](O)[C@H]1CO [MIGLUSTAT] |  |  |  |  |  |  |  |  |  | EC50 [22]: 100 µM; EC50 [23]: 100 µM
